≈ marks a conversion by molar mass, not a printed value.
Columns and labels:
[1] = molecular target: T1, Receptor tyrosine-protein kinase erbB-2 (Homo sapiens, UniProt P04626); experiment: Inhibition of ebrB2 expressed in human MCF7 cells by autophosphorylation assay; assay type: cell-based
Mus musculus [2] = species: Mus musculus; experiment: animal or person; details: BT474c, po, 8 h, read-out: Inhibition
Mus musculus [3] = species: Mus musculus; experiment: animal or person; details: BT474c, po, 1 h, read-out: Inhibition
[4] = Volume of distribution at steady state in Beagle dog at 1 mg/kg, iv and 2 mg/kg, po; assay type: ADME, organism-based, Canis lupus familiaris; details: in vivo, read-out: Vdss
[5] = Partition coefficient, log D at pH 7.4; assay type: physicochemical; details: octanol/water
Rattus norvegicus [6] = experiment: Clearance in Han Wistar rat assessed as hepatic blood flow at 2 mg/kg, iv and 5 mg/kg, po; assay type: ADME, organism-based, Liver; details: in vivo
[7] = Fraction unbound ligand in Beagle dog at 0.2 mg/kg, iv and 0.4 mg/kg, po; assay type: ADME, organism-based, Canis lupus familiaris; details: in vivo
KB = experiment: cells; details: Homo sapiens
[8] = Volume of distribution at steady state in Han Wistar rat at 2 mg/kg, iv and 5 mg/kg, po; assay type: ADME, organism-based; details: in vivo, read-out: Vdss
[9] = Bioavailability in Han Wistar rat at 2 mg/kg, iv and 5 mg/kg, po; assay type: ADME, organism-based; details: in vivo
Canis familiaris [10] = experiment: Clearance in Beagle dog assessed as hepatic blood flow at 1 mg/kg, iv and 2 mg/kg, po; assay type: ADME, organism-based, Canis lupus familiaris, Liver; details: in vivo
[11] = Fraction unbound ligand in mouse plasma protein; assay type: ADME, cell-free
[12] = Fraction unbound ligand in Han Wistar rat plasma protein; assay type: ADME, cell-free
[13] = Bioavailability in Beagle dog at 1 mg/kg, iv and 2 mg/kg, po; assay type: ADME, organism-based, Canis lupus familiaris; details: in vivo
[14] = molecular target: Epidermal growth factor receptor (Homo sapiens, UniProt P00533)
Sequence of Epidermal growth factor receptor (P00533 whole entry): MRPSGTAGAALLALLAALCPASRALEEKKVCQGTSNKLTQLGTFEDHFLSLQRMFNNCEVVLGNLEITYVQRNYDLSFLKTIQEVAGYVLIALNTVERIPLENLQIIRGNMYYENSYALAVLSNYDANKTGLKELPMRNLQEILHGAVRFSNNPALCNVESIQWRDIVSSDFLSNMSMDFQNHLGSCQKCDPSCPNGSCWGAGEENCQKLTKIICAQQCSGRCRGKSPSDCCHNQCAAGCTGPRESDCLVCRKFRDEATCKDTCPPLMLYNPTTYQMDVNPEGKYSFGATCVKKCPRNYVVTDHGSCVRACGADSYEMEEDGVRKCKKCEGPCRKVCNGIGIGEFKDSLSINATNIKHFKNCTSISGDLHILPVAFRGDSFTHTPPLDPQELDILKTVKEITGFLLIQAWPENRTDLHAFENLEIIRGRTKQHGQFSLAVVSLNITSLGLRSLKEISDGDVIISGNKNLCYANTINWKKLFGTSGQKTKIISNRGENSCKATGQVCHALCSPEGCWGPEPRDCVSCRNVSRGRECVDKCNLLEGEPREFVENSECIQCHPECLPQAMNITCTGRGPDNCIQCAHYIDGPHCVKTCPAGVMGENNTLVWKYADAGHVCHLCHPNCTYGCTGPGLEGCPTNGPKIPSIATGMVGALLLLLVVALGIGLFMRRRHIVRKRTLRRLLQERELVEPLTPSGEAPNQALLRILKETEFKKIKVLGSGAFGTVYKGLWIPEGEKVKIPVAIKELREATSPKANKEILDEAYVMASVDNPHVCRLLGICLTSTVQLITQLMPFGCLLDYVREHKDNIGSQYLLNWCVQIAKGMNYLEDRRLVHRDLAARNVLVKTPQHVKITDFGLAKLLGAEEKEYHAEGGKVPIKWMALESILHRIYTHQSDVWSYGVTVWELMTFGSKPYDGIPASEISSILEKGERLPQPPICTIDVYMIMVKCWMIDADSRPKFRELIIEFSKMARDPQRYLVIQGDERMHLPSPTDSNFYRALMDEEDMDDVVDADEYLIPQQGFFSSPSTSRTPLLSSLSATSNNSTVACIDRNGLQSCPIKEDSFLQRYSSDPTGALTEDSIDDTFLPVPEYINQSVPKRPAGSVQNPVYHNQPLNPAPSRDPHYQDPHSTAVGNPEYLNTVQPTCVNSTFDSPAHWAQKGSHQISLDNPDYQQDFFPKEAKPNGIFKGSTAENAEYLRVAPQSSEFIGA

[15] = Solubility in aqueous phosphate buffer at pH 7.4 after 24 hrs; assay type: physicochemical
[16] = molecular target: Voltage-gated inwardly rectifying potassium channel KCNH2 (Homo sapiens, UniProt Q12809)
Sequence of Voltage-gated inwardly rectifying potassium channel KCNH2 (Q12809 whole entry): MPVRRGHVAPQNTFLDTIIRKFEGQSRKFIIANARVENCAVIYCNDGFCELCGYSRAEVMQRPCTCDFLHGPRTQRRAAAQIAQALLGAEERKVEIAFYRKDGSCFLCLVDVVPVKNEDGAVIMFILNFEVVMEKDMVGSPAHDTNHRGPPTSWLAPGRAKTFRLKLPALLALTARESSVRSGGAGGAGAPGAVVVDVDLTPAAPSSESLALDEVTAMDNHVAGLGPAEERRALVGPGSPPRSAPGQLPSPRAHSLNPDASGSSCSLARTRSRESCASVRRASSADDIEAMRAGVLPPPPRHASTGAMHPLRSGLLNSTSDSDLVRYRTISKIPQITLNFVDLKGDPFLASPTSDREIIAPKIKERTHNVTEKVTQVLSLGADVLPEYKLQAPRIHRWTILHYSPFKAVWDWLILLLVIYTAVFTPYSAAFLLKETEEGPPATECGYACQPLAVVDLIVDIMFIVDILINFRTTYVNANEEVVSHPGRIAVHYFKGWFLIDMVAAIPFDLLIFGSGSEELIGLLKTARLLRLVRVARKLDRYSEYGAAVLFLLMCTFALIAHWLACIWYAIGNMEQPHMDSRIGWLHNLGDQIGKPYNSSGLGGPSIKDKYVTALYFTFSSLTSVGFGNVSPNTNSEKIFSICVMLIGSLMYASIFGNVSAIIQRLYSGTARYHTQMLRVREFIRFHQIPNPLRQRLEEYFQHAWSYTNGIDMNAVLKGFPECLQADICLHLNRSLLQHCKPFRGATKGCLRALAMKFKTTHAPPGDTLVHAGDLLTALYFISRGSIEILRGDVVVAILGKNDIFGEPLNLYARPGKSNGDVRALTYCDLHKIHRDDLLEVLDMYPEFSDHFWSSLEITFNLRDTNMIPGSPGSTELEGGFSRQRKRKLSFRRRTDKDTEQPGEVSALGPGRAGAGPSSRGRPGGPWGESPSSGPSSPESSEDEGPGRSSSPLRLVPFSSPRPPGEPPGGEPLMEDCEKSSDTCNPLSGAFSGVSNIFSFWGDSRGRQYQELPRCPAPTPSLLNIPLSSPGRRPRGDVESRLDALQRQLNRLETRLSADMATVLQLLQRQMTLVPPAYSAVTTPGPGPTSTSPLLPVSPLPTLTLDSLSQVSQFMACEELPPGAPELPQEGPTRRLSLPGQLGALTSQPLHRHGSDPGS

[17] = Dissociation constant, pKa of the compound; assay type: physicochemical
[18] = Bioavailability in Han Wistar rat at 0.4 mg/kg, iv and 1 mg/kg, po; assay type: ADME, organism-based; details: in vivo
[19] = molecular target: T1, Receptor tyrosine-protein kinase erbB-2; experiment: Inhibition of ebrB2
Canis familiaris [20] = experiment: Clearance in Beagle dog assessed as hepatic blood flow at 0.2 mg/kg, iv and 0.4 mg/kg, po; assay type: ADME, organism-based, Canis lupus familiaris, Liver; details: in vivo
[21] = Volume of distribution at steady state in Han Wistar rat at 0.4 mg/kg, iv and 1 mg/kg, po; assay type: ADME, organism-based; details: in vivo, read-out: Vdss
[22] = Volume of distribution at steady state in Beagle dog at 0.2 mg/kg, iv and 0.4 mg/kg, po; assay type: ADME, organism-based, Canis lupus familiaris; details: in vivo, read-out: Vdss
Rattus norvegicus [23] = experiment: Clearance in Han Wistar rat assessed as hepatic blood flow at 0.4 mg/kg, iv and 1 mg/kg, po; assay type: ADME, organism-based, Liver; details: in vivo
[24] = Bioavailability in Beagle dog at 0.2 mg/kg, iv and 0.4 mg/kg, po; assay type: ADME, organism-based, Canis lupus familiaris; details: in vivo
cells = details: Homo sapiens, BT474c
Mus musculus [25] = species: Mus musculus; experiment: animal or person; details: BT474c, po, 1 h, read-out: Inhibition; remark: listed apart in the source
Mus musculus [26] = species: Mus musculus; experiment: animal or person; details: BT474c, po, 8 h, read-out: Inhibition; remark: listed apart in the source

T1 sequence (P04626 whole entry): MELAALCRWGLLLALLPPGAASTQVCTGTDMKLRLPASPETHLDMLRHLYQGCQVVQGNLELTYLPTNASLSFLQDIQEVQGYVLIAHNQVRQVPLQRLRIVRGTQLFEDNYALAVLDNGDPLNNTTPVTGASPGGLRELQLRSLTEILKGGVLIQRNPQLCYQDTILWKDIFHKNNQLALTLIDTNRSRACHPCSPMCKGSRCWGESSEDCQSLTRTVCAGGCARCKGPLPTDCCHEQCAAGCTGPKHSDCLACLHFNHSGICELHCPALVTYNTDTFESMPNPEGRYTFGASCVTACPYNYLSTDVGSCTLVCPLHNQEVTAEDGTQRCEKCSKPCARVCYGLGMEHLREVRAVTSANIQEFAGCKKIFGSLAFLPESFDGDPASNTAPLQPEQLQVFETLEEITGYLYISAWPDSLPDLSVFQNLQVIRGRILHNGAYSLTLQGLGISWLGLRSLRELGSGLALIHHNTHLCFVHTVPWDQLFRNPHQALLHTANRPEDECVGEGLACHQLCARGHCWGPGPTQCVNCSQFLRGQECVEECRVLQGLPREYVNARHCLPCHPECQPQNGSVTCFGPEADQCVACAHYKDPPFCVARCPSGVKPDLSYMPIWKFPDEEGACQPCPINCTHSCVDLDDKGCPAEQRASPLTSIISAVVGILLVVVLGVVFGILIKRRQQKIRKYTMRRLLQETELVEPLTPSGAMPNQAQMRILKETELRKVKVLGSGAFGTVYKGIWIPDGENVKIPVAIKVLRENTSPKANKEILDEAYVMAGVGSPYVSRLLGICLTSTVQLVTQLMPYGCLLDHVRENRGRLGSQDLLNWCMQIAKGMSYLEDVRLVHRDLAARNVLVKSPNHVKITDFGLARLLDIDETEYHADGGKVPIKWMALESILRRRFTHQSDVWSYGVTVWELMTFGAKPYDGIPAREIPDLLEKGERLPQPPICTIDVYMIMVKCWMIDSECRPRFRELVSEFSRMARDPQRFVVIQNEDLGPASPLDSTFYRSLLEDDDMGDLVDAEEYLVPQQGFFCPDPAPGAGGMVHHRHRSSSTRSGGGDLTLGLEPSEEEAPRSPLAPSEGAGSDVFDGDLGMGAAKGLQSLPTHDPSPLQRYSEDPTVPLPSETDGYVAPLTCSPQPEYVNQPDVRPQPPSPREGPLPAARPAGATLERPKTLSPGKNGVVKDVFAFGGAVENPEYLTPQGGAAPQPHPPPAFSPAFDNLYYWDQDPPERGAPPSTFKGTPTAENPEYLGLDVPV

## Cc1ccc(Oc2ccc(Nc3ncnc4cccc(O[C@H](C)C(=O)N5CCOCC5)c34)cc2Cl)cn1
[1]
  IC50: 27 nM

## CN1CCN(C(=O)COc2cccc3ncnc(Nc4ccc(OCc5ccccn5)c(Cl)c4)c23)CC1
[1]
  IC50: 350 nM

## Cc1ccc(Oc2ccc(Nc3ncnc4cccc(O[C@H](C)C(=O)NCCO)c34)cc2C)cn1
[1]
  IC50: 200 nM

## Cc1ccc(Oc2ccc(Nc3ncnc4cccc(O[C@H](C)C(=O)N(C)C)c34)cc2C)cn1
Mus musculus [2]
  inhibition in vivo at 100 mg/kg: 55%
Mus musculus [3]
  inhibition in vivo at 100 mg/kg: 37%
[4]
  Vd: 1.8 L/kg
[5]
  logD: > 4.3
Rattus norvegicus [6]
  %hepatic blood flow: 12%
[7]
  fraction unbound: 0.025
KB
  IC50: 2700 nM
[8]
  Vd: 0.9 L/kg
[9]
  bioavailability: 67%
Canis familiaris [10]
  %hepatic blood flow: 48%
[11]
  fraction unbound: 0.011
[12]
  fraction unbound: 0.017
[13]
  bioavailability: 47%
[14]
  IC50: 1100 nM
[15]
  solubility at 24 h: 28 µM (≈ 12.8 µg/mL)
[16]
  IC50: 8000 nM

## CN(CCO)C(=O)COc1cccc2ncnc(Nc3ccc(OCc4ccccn4)c(Cl)c3)c12
[1]
  IC50: 120 nM

## Cc1ccc(Oc2ccc(Nc3ncnc4cccc(O[C@@H](C)C(=O)N(C)CCO)c34)cc2C)cn1
[1]
  IC50: 78 nM

## C[C@H](Oc1cccc2ncnc(Nc3ccc(OCc4ccccn4)c(Cl)c3)c12)C(=O)N(C)C
[1]
  IC50: 43 nM
[16]
  IC50: 10000 nM

## CN1CCC(Oc2cccc3ncnc(Nc4ccc(OCc5ccccn5)c(Cl)c4)c23)CC1
[17]
  pKa: 8.1
[16]
  IC50: 5000 nM

## NC(=O)COc1cccc2ncnc(Nc3ccc(OCc4ccccn4)c(Cl)c3)c12
[1]
  IC50: 180 nM

## C[C@@H](Oc1cccc2ncnc(Nc3ccc(OCc4ccccn4)c(Cl)c3)c12)C(=O)N(C)CCO
[1]
  IC50: 31 nM

## C[C@H](Oc1cccc2ncnc(Nc3ccc(OCc4ccccn4)c(Cl)c3)c12)C(=O)N(C)CCO
[1]
  IC50: 79 nM

## C[C@@H](Oc1cccc2ncnc(Nc3ccc(OCc4ccccn4)c(Cl)c3)c12)C(=O)N1CCOCC1
[1]
  IC50: 19 nM
[16]
  IC50: 10000 nM

## C[C@@H](Oc1cccc2ncnc(Nc3ccc(OCc4ccccn4)c(Cl)c3)c12)C(=O)N(C)C
[18]
  bioavailability: 75%
[5]
  logD: 3.7
[19]
  IC50: < 1 nM
[7]
  fraction unbound: 0.011
KB
  IC50: 1000 nM
Canis familiaris [20]
  %hepatic blood flow: 24%
[12]
  fraction unbound: 0.004
[14]
  IC50: 22 nM
[21]
  Vd: 0.5 L/kg
[22]
  Vd: 1 L/kg
Rattus norvegicus [23]
  %hepatic blood flow: 4.3%
[15]
  solubility at 24 h: 6 µM (≈ 2.87 µg/mL)
[1]
  IC50: 34 nM
[24]
  bioavailability: 89%
cells
  IC50: 100 nM
[16]
  IC50: 14000 nM

## O=C(COc1cccc2ncnc(Nc3ccc(OCc4ccccn4)c(Cl)c3)c12)N1CCOCC1
[1]
  IC50: 140 nM

## Cc1ccc(Oc2ccc(Nc3ncnc4cccc(OCC(=O)N(C)CCO)c34)cc2C)cn1
[1]
  IC50: 130 nM

## Cc1ccc(Oc2ccc(Nc3ncnc4cccc(O[C@@H](C)C(=O)N5CCOCC5)c34)cc2C)cn1
[1]
  IC50: 35 nM

## COCCN(C)C(=O)[C@@H](C)Oc1cccc2ncnc(Nc3ccc(Oc4ccc(C)nc4)c(C)c3)c12
[1]
  IC50: 120 nM

## CNC(=O)[C@@H](C)Oc1cccc2ncnc(Nc3ccc(OCc4ccccn4)c(Cl)c3)c12
[1]
  IC50: 66 nM
[16]
  IC50: 32000 nM

## COc1cc(Nc2ncnc3cccc(O[C@H](C)C(=O)N4CCOCC4)c23)ccc1Oc1ccc(C)nc1
[1]
  IC50: 23 nM

## Cc1ccc(Oc2ccc(Nc3ncnc4cccc(O[C@H](C)C(=O)N(C)CCO)c34)cc2C)cn1
[5]
  logD: 3.8
Rattus norvegicus [6]
  %hepatic blood flow: 23%
[19]
  IC50: 2 nM
[7]
  fraction unbound: 0.038
KB
  IC50: 23000 nM
[8]
  Vd: 1 L/kg
Mus musculus [25]
  inhibition in vivo at 100 mg/kg: 78%
[9]
  bioavailability: 34%
Canis familiaris [20]
  %hepatic blood flow: 34%
[11]
  fraction unbound: 0.025
[12]
  fraction unbound: 0.029
[14]
  IC50: 2000 nM
[22]
  Vd: 0.9 L/kg
[15]
  solubility at 24 h: 66 µM (≈ 32.2 µg/mL)
[1]
  IC50: 69 nM
Mus musculus [26]
  inhibition in vivo at 100 mg/kg: 36%
[24]
  bioavailability: 33%
cells
  IC50: 270 nM

## Cc1ccc(Oc2ccc(Nc3ncnc4cccc(O[C@@H](C)C(=O)N(C)C)c34)cc2C)cn1
[16]
  IC50: 11000 nM

## Cc1ccc(Oc2ccc(Nc3ncnc4cccc(O[C@H](C)C(=O)N5CCOCC5)c34)cc2C)cn1
[1]
  IC50: 22 nM
